Measured values reported in patent publication US20250281451A1, “COMPOSITIONS AND METHODS FOR MODULATING SLEEP AND USES THEREOF” (Brightseed, Inc., priority 2022, published 2025).
“Also recorded” adds a separate entry of the source.

Tests used:
Orx2 = target: T1, Orx2 (Homo sapiens, UniProt O43614); assay: Orx2 antagonist screening, chemiluminescent cell assay with Orexin B EC80; format: cell-based; conditions: for % Agonism Orx2 at Relative IC50: absolute percent agonism at the μM concentration of the relative OR2 IC50; for IC50: antagonist mode against Orexin B EC80, read-out: Relative IC50 of Orx2; for IC50 Dilution of Orx2 (fold dilution): concentration of the fraction of the plant source, in fold dilution, needed to achieve IC50 of OR2
T1 construct: DiscoverX
T1 sequence (O43614 1-444): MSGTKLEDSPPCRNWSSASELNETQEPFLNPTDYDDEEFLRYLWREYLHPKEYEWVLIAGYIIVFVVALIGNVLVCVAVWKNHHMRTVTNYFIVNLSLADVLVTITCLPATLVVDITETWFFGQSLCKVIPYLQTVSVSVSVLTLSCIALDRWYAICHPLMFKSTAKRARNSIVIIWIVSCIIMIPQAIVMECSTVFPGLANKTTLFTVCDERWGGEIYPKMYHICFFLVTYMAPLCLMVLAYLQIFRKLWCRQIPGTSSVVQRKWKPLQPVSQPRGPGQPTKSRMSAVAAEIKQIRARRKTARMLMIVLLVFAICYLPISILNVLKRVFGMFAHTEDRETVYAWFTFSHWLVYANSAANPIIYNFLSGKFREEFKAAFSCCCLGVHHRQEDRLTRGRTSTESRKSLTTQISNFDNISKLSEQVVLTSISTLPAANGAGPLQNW
Description: For this example, the following protocol was used: 1.) seed cells in 20 μL Cell Plating Reagent; 2.) incubate cells overnight at 37° C. and 5% CO2; 3.) treat cells with 2.5 μL 10× antagonist prepared in Compound Dilution Buffer (For OR2 screening, 2.5 μL of 1:100 natural product sample in DiscoverX cell plating reagent. Control antagonist, Seltorexant, 10× stock was prepared at 1500 nM); 4.) incubate for 30 minutes at 37° C. and 5% CO2; 5.) treat cells with 2.5 μL 10× agonist prepared in Compound Dilution Buffer (For OR2 screening, 2.5 μL of 10× Orexin B EC80, 252.7 nM); 6.) incubate for 90 minutes at 37° C. and 5% CO2; 7.) add 12.5 μL Working Detection Solution; 8.) incubate for 1 hour at room temperature in the dark; and 9.) read chemiluminescent signal.
(§1) The plants described herein were tested to determine the concentration, in μM, to achieve the relative IC50 of OR2 receptor, the absolute percent agonism achieved at the μM concentration of the relative OR2 IC50, the percentage receptor activity at the concentration, in μM, needed to achieve IC50 in OR2, the percentage cell viability, measured by XTT assay, at the IC50 μM concentration, the concentration of the fraction, in fold dilution, needed to achieve IC50 of OR2, and the percentage receptor activity at the concentration of the fraction, in fold dilution, needed to achieve IC50 of OR2.

Orx1 = target: T2, Orx1 (Homo sapiens, UniProt O43613); assay: % agonism on Orx1 at the OR2 IC50 concentration; format: cell-based; conditions: at the μM concentration needed to achieve IC50 in OR2
T2 sequence (O43613 1-425): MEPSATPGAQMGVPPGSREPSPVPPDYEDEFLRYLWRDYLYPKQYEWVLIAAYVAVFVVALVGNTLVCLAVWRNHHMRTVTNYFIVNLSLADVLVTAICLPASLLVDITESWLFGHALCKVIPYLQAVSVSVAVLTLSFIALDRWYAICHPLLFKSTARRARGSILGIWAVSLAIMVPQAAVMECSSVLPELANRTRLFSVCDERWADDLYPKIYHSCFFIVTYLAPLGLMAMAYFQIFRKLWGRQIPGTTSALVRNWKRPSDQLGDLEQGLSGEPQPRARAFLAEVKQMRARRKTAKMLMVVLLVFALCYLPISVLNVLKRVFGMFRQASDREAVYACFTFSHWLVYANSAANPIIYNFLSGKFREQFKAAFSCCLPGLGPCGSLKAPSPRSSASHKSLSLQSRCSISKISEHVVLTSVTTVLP
Description: For this example, the following protocol was used: 1.) seed cells in 20 μL Cell Plating Reagent; 2.) incubate cells overnight at 37° C. and 5% CO2; 3.) treat cells with 2.5 μL 10× antagonist prepared in Compound Dilution Buffer (For OR2 screening, 2.5 μL of 1:100 natural product sample in DiscoverX cell plating reagent.
as §1

cells = assay: cell viability, XTT assay; format: cell-based; conditions: at the IC50 μM concentration of the compound
Description: as §1

male Sprague-Dawley rat = assay: in vivo tolerability, dose escalation, adverse effect observation; conditions: for 15 min effects (adverse effects) / 30 min effects (adverse effects) / 60 min effects (adverse effects): n=3 rats, (x/3) animals affected
Description: In this example, the in vivo tolerability of Compounds 26, 21, 29, and 13 was assessed.
Naïve rats (male Sprague-Dawley rat) were acclimatized to the procedure room in their home cages up to 7 days following arrival to the test facility, with food and water available ad libitum. On the day of experiment, animals were acclimatized to the experimental room for at least one hour prior to the beginning of any experiment. All animals were tail marked, weighed and randomly assigned to treatment groups. The animals (n=3 per dose) were treated with either Compounds 26, 21, 29, and 13 (10 mL/kg, p.o.). For each compound a maximum of 4 doses were tested using a dose escalation procedure starting from 30 mg/kg. If this initial dose is well-tolerated, the dosage is increased to 100 mg/kg. If the 30 mg/kg dose is not tolerated, the dose is reduced to 15 mg/kg. Following the dose escalation procedure, if the 100 mg/kg dose is well-tolerated, the dose is escalated to 315 mg/kg. If it is not tolerated, the dose is decreased to 60 mg/kg. The pattern continues with the next decision point: if 315 mg/kg is well-tolerated, the dose is increased to the maximum of 500 mg/kg. If 315 mg/kg is not tolerated, the dose is decreased to 200 mg/kg.
The compounds would be considered not tolerated if three or more adverse effects (or any severe adverse effect) occurred at specific dose during the entire period of 60 mins. […] Mild—slight decrease in activity, responsive when provoked. Moderate—decrease in activity, less responsive when provoked.

Row | % Agonism Orx2 at Relative IC50 (Orx2) | IC50 (Orx2) | IC50 Dilution of Orx2 (fold dilution) (Orx2) | % Agonism on Orx1 at OR2 IC50 (Orx1) | Compound | % Cell viability at IC50 (cells) | also measured
1 | 75% | 381 µM | 5786.9 fold dilution | 77.95% | COc1ccc(C(=O)CCc2ccc(O)cc2)c(O)c1 [Compound 16, 1-(2-hydroxy-4-methoxyphenyl)-3-(4-hydroxyphenyl)propan-1-one] | 85.11% | 
2 |  |  |  |  | O=c1c(O)c(-c2ccc(O)c(O)c2)oc2cc(O)cc(O)c12 [Compound 29, 2-(3,4-dihydroxyphenyl)-3,5,7-trihydroxychromen-4-one] |  | 15 min effects (adverse effects) (male Sprague-Dawley rat; 30 mg/kg p.o.): No adverse effects; 30 min effects (adverse effects) (male Sprague-Dawley rat; 30 mg/kg p.o.): No adverse effects; 60 min effects (adverse effects) (male Sprague-Dawley rat; 30 mg/kg p.o.): No adverse effects; 15 min effects (adverse effects) (male Sprague-Dawley rat; 100 mg/kg p.o.): Reduced activity; 30 min effects (adverse effects) (male Sprague-Dawley rat; 100 mg/kg p.o.): No adverse effects; 60 min effects (adverse effects) (male Sprague-Dawley rat; 100 mg/kg p.o.): No adverse effects; 15 min effects (adverse effects) (male Sprague-Dawley rat; 315 mg/kg p.o.): Reduced activity; 30 min effects (adverse effects) (male Sprague-Dawley rat; 315 mg/kg p.o.): Reduced activity; also recorded: Pica (2/3); 60 min effects (adverse effects) (male Sprague-Dawley rat; 315 mg/kg p.o.): Reduced activity (3/3); 15 min effects (adverse effects) (male Sprague-Dawley rat; 500 mg/kg p.o.): Pica (1/3); 30 min effects (adverse effects) (male Sprague-Dawley rat; 500 mg/kg p.o.): Pica (2/3); 60 min effects (adverse effects) (male Sprague-Dawley rat; 500 mg/kg p.o.): No adverse effects; tolerability (male Sprague-Dawley rat; all four doses (30, 100, 315 and 500 mg/kg) p.o., 60 min observation): well-tolerated
3 | 65% | 53.3 µM | 7039.1 fold dilution | 64.4% | O=c1c(O)c(-c2ccc(O)cc2)oc2cc(O)cc(O)c12 [Compound 12, 3,5,7-trihydroxy-2-(4-hydroxyphenyl)chromen-4-one] | 80.39% | 
4 | 80% | 188 µM | 5786.9 fold dilution | 100.52% | O=C(CCc1ccc(O)cc1)c1ccc(O)cc1OC1OC(CO)C(O)C(O)C1O (centres unmarked) [Compound 17, 3-(4-hydroxyphenyl)-1-[4-hydroxy-2-[3,4,5-trihydroxy-6-(hydroxymethyl)oxan-2-yl]oxyphenyl]propan-1-one] | 89.87% | 
5 | 80% | 319 µM | 5786.9 fold dilution | 68.74% | O=C(CCc1ccc(O)cc1)c1ccc(OC2OC(CO)C(O)C(O)C2O)cc1O (centres unmarked) [Compound 19, 3-(4-hydroxyphenyl)-1-[2-hydroxy-4-[3,4,5-trihydroxy-6-(hydroxymethyl)oxan-2-yl]oxyphenyl]propan-1-one] | 86.12% | 
6 | 45% | 154 µM |  | 56.18% | O=c1c(O[C@@H]2O[C@@H](CO)[C@H](O)[C@H]2O)c(-c2ccc(O)cc2)oc2cc(O)cc(O)c12 [Compound 27, 3-[(2S,3R,4R,5S)-3,4-dihydroxy-5-(hydroxymethyl)oxolan-2-yl]oxy-5,7-dihydroxy-2-(4-hydroxyphenyl)chromen-4-one] | 101.69% | 
7 | 65% | 79.1 µM | 2283.9 fold dilution | 67.71% | C[C@@H]1O[C@@H](OC[C@H]2O[C@@H](Oc3c(-c4ccc(O)c(O)c4)oc4cc(O)cc(O)c4c3=O)[C@H](O)[C@@H](O)[C@@H]2O)[C@H](O)[C@H](O)[C@H]1O [Compound 15, 2-(3,4-dihydroxyphenyl)-5,7-dihydroxy-3-[(2S,3R,4S,5S,6R)-3,4,5-trihydroxy-6-[[(2R,3R,4R,5R,6S)-3,4,5-trihydroxy-6-methyloxan-2-yl]oxymethyl]oxan-2-yl]oxychromen-4-one] | 103.46% | 
8 | 50% | 148 µM |  | 103.7053% | COc1cc(-c2oc3c(OC)c(O[C@@H]4O[C@H](COC(C)=O)[C@@H](O)[C@H](O)[C@H]4O[C@@H]4O[C@@H](C)[C@H](O)[C@@H](O)[C@H]4O)cc(O)c3c(=O)c2O)ccc1O [Compound 25, [(2R,3S,4S,5R,6S)-6-[3,5-dihydroxy-2-(4-hydroxy-3-methoxyphenyl)-8-methoxy-4-oxochromen-7-yl]oxy-3,4-dihydroxy-5-[(2S,3R,4R,5R,6S)-3,4,5-trihydroxy-6-methyloxan-2-yl]oxyoxan-2-yl]methyl acetate] | 91.68% | 
9 | 45% | 191 µM |  | 48.83% | CC1O[C@@H](OC2C(O)[C@H](Oc3c(-c4ccc(O)cc4)oc4cc(O)cc(O)c4c3=O)OC(CO)[C@H]2O)[C@@H](O)C(O)[C@H]1O (stereo partly drawn) [Compound 24, 3-[(2S,5R)-3,5-dihydroxy-6-(hydroxymethyl)-4-[(2S,3S,5R)-3,4,5-trihydroxy-6-methyloxan-2-yl]oxyoxan-2-yl]oxy-5,7-dihydroxy-2-(4-hydroxyphenyl)chromen-4-one] | 96.12% | 
10 | 45% | 146 µM |  |  | O=C(O)[C@H]1O[C@@H](Oc2c(-c3ccc(O)cc3)oc3cc(O)cc(O)c3c2=O)[C@H](O)[C@@H](O)[C@@H]1O [Compound 20, (2S,3S,4S,5R,6S)-6-[5,7-dihydroxy-2-(4-hydroxyphenyl)-4-oxochromen-3-yl]oxy-3,4,5-trihydroxyoxane-2-carboxylic acid] | 83.58% | 
